Values joined by “and” are separate entries in the source; they are usually repeats but may differ in a detail not shown here. Equal values may be shown once.
Tests used:
Format in all cases: cell-based
AaegOR10 = biological target: T1, AaegOR10 (Aedes aegypti, UniProt Q177X3); assay: Two-electrode voltage clamp of Xenopus laevis oocytes expressing AaegOR10/Orco (blends, unitary compounds, concentration-response); conditions: for Raw response, unitary compounds of blend Indoles 1: unitary compounds of Indoles 1, individual oocytes 1-9 (replicates); for Raw Data, concentration-response: first series, oocytes 1-8
T1 sequence (Q177X3 1-375): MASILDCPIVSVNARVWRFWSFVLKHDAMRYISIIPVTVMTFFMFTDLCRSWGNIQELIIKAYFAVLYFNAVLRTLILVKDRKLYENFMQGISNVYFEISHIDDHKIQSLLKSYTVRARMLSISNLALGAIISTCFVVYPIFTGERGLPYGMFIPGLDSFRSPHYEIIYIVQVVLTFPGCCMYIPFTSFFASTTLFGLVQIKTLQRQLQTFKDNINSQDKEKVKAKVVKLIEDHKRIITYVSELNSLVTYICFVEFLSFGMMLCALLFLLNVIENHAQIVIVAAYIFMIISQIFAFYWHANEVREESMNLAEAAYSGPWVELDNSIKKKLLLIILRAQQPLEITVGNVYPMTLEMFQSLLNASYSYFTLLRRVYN
T1 sequence (Q178U6 1-478 partner): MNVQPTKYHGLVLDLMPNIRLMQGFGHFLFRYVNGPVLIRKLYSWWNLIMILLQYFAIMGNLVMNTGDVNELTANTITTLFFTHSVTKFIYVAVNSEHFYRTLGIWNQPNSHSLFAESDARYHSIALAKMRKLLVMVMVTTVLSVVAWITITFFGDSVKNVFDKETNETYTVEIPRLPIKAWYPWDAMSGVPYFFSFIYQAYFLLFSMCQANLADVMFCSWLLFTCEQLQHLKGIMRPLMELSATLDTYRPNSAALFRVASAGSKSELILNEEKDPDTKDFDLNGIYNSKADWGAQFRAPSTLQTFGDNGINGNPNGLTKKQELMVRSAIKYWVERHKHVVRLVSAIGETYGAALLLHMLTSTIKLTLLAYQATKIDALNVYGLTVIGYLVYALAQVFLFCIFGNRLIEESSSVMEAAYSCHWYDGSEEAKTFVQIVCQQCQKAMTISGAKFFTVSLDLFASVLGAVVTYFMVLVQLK
Description: (§1) The coding regions of ten AaegOR genes of interest (S3 File) and AaegOrco were synthesized by Twist Bioscience (San Francisco, CA, USA) and cloned into the pENTR plasmid. The Gateway LR directional cloning system (Invitrogen Corp., Carlsbad, CA, USA) was utilized to subclone AaegOR coding regions into the pSP64t-RFA oocyte expression plasmid. Plasmids were purified using the GeneJet Plasmid Miniprep Kit (ThermoFisher Scientific, Waltham, MA, USA). Purified plasmids were sequenced in both directions to confirm coding regions.
(§2) Chemical compounds (S6 File) used in the deorphanization of AaegORs were purchased from Acros Organics (Morris, NJ, USA), Alfa Aesar (Ward Hill, MA, USA), and ThermoFisher Scientific (Waltham, MA, USA) at the highest purity available. Compounds were stored as 1M stocks in 100% DMSO. Serial dilutions of each compound were prepared in 10% DMSO and blended by chemical class.
(§3) pSP64t-RFA: AaegOR clones were linearized using Xbal, and cRNAs were synthesized using the mMESSAGE mMACHINE ® SP6 kit (Life Technologies, Carlsbad, CA, USA). Xenopus laevis stage V-VII oocytes purchased from Xenopus1 (Dexter, MI, USA) were stored at 18°C in Incubation medium (ND96 96 with 5% dialyzed horse serum, 50μg/mL gentamycin, 100μg/mL streptomycin, 100μg/mL penicillin, and 550μg/mL sodium pyruvate). 30nL of cRNA was injected into multiple oocytes using a microinjection syringe pump (World Precision Instruments, Sarasota, FL, USA) maintained at 18°C for 48–72 hrs. Odorant blends were perfused across individual oocytes for 10–15 seconds, held at a resting membrane potential of -80 mV using an OC-725C oocyte clamp (Warner Instruments, LLC, Hamden, CT, USA). Induced currents were measured indirectly using the two-electrode voltage clamp technique (TEVC). Following each stimulus, currents were allowed to return to baseline before further stimulation. Data was captured using the Digidata 1550 B digitizer and PClamp10 software (Molecular Devices, San Jose, CA, USA). Concentration-response curves were generated by perfusing unitary odorants over oocytes at increasing concentrations from [10^-3M] to [10^-9M]. Data were analyzed using GraphPad Prism 8 (GraphPad Software Inc., La Jolla, CA, USA). At least two biological replicates were conducted at each concentration and for each compound. Data for at least seven oocytes responding to each compound was analyzed (S7 File).

AaegOR13 = biological target: T2, AaegOR13 (Aedes aegypti, UniProt Q16Z13); assay: Two-electrode voltage clamp of Xenopus laevis oocytes expressing AaegOR13/Orco (blends, unitary compounds, concentration-response); conditions: for Raw data (Responses in nA), unitary compounds of Indoles 1, Alcohols 1, Alcohols 3: individual oocytes 1-7
T2 sequence (Q16Z13 1-389): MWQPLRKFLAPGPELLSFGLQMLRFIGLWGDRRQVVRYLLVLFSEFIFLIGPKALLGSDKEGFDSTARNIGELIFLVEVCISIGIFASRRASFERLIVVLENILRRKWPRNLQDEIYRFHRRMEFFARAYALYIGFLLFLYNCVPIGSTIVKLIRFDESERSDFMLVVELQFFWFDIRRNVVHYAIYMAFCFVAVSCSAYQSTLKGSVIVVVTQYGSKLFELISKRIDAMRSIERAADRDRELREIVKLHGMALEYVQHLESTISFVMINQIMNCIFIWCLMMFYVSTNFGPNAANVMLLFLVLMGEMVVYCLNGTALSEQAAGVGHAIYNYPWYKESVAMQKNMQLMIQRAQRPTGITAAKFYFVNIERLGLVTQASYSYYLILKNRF
T2 sequence (Q178U6 1-478 partner): T1 sequence (Q178U6 1-478 partner)
How it was run: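 Xenopus oocytes injected with cRNA for AaegOR plus Orco, kept 48–72 hrs at 18°C, clamped at -80 mV by TEVC. Odorant blends or single compounds (10% DMSO dilutions) perfused 10–15 s; concentration-response from 10^-3M to 10^-9M, ≥7 responding oocytes, ≥2 biological replicates.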

AaegOR55 = biological target: T3, AaegOR55 (Aedes aegypti, UniProt Q16T12); assay: Two-electrode voltage clamp of Xenopus laevis oocytes expressing AaegOR55/Orco (blends, unitary compounds, concentration-response); conditions: for Raw Data (Responses in nA), Indoles 1 unitary compounds / Raw Data (Responses in nA), concentration-response: AaegOR55; for Raw Data (Responses in nA), Indoles 1 unitary compounds: compounds of blend Indoles 1, individual oocytes (Oocyte 1-7); for Raw Data (Responses in nA), concentration-response: individual oocytes (Oocyte 1-9)
T3 sequence (Q16T12 10-392): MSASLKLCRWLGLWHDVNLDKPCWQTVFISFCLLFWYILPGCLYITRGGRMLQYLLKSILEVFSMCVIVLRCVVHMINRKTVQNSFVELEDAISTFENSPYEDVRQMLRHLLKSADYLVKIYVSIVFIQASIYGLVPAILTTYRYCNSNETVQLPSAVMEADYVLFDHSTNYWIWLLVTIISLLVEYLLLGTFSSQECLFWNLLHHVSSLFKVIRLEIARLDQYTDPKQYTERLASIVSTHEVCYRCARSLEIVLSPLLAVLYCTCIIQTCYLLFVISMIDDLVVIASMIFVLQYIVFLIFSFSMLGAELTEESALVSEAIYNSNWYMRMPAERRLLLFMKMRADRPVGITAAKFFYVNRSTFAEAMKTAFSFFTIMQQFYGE
T3 sequence (Q178U6 1-478 partner): T1 sequence (Q178U6 1-478 partner)
Description: as §1, §2, §3

Row | Compound | Raw response, unitary compounds of blend Indoles 1 (AaegOR10) | Raw data (Responses in nA), unitary compounds of Indoles 1, Alcohols 1, Alcohols 3 (AaegOR13) | EC50 (AaegOR55; AaegOR55/Orco expressing oocytes, TEVC, concentration-response of normalized current) | Raw Data (Responses in nA), Indoles 1 unitary compounds (AaegOR55) | Raw Data (Responses in nA), concentration-response (AaegOR55; concentration 1e-7 M) | Raw Data (Responses in nA), concentration-response (AaegOR55; concentration 5e-7 M) | Raw Data (Responses in nA), concentration-response (AaegOR55; concentration 1e-6 M) | Raw Data (Responses in nA), concentration-response (AaegOR55; concentration 5e-6 M) | Raw Data (Responses in nA), concentration-response (AaegOR55; concentration 1e-5 M) | Raw Data (Responses in nA), concentration-response (AaegOR55; concentration 5e-5 M) | Raw Data (Responses in nA), concentration-response (AaegOR55; concentration 0.0001 M) | Raw Data, concentration-response (AaegOR10; 5e-7 M) | Raw Data, concentration-response (AaegOR10; 1e-5 M) | EC50 (AaegOR10; AaegOR10/Orco expressing oocytes, TEVC, concentration-response of normalized current) | response of AaegOR55 to unitary compounds (AaegOR55; AaegOR55/Orco expressing oocytes, TEVC, individual compounds) | EC50 (AaegOR13; AaegOR13/Orco expressing oocytes, TEVC, concentration-response of normalized current)
1 | Cc1[nH]c2ccccc2c1C [2,3-dimethylindole] | 70.0 nA and 20.0 nA and 0.0 nA (4×) and 10.0 nA (2×) and 30.0 nA | 0.0 nA (6×) and 5.0 nA | 8650 nM | 235.0 nA and 140.0 nA and 250.0 nA and 300.0 nA and 185.0 nA and 305.0 nA and 295.0 nA | 10.0 nA (6×) and 15.0 nA (2×) and 5.0 nA | 30.0 nA (4×) and 20.0 nA (2×) and 15.0 nA and 40.0 nA and 45.0 nA | 20.0 nA (2×) and 10.0 nA and 30.0 nA (2×) and 15.0 nA and 35.0 nA and 40.0 nA and 55.0 nA | 70.0 nA and 25.0 nA and 80.0 nA and 60.0 nA (2×) and 110.0 nA and 120.0 nA and 190.0 nA (2×) | 90.0 nA (2×) and 25.0 nA and 120.0 nA and 80.0 nA and 140.0 nA and 170.0 nA and 260.0 nA (2×) | 165.0 nA and 40.0 nA and 210.0 nA and 140.0 nA and 170.0 nA and 220.0 nA and 240.0 nA and 430.0 nA and 380.0 nA | 160.0 nA and 55.0 nA and 210.0 nA (3×) and 140.0 nA and 180.0 nA and 440.0 nA and 380.0 nA |  |  |  |  | 
2 | Cc1cc2ccccc2[nH]1 [2-Methylindole] | 0.0 nA | 0.0 nA (6×) and 5.0 nA |  | 0.0 nA |  |  |  |  |  |  |  |  |  |  |  | 
3 | Cc1c[nH]c2ccccc12 [3-methylindole] | 270.0 nA and 500.0 nA and 120.0 nA and 40.0 nA and 80.0 nA and 320.0 nA and 70.0 nA and 180.0 nA and 30.0 nA | 0.0 nA and 5.0 nA (5×) and 10.0 nA |  | 160.0 nA and 85.0 nA and 170.0 nA and 235.0 nA and 120.0 nA and 225.0 nA and 245.0 nA |  |  |  |  |  |  |  | 90.0 nA | 100.0 nA | 160 nM | responded | 
4 | CCc1ccc(O)cc1 [4-ethylphenol, 4-Ethylphenol] | 0.0 nA | 70.0 nA and 740.0 nA and 340.0 nA and 310.0 nA and 300.0 nA and 275.0 nA and 250.0 nA |  | 5.0 nA (5×) and 0.0 nA (2×) |  |  |  |  |  |  |  |  |  |  |  | ~170 nM and 170 nM
5 | c1ccc2[nH]ccc2c1 [indole] | 0.0 nA (6×) and 80.0 nA and 10.0 nA (2×) | 0.0 nA (3×) and 5.0 nA (4×) |  | 40.0 nA (2×) and 15.0 nA and 30.0 nA (2×) and 25.0 nA (2×) |  |  |  |  |  |  |  |  |  |  |  | 

From PMC11073699, “Odorant receptors for floral- and plant-derived volatiles in the yellow fever mosquito, Aedes aegypti (Diptera: Culicidae)” (PLOS ONE, 2024)
